In US12612409B2, “Pyrrolopyrimidines as CFTR potentiators” (Cystic Fibrosis Foundation, priority 2016, dated 2026):

Experiments:
[1] = target: T1, recombinant F508del V470 CFTR in Fischer rat thyroid (FRT) cells (Homo sapiens, UniProt P13569, DEL508-508); assay: FRT ion flux assay of F508del CFTR potentiation; assay type: cell-based; conditions: FRT cells expressing F508del V470 CFTR, forskolin 20 uM, 27° C. pre-incubation
T1 construct: expressed in transfected cells
Outline: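 FRT cells co-expressing F508del V470 CFTR and halide-sensitive YFP, temperature-corrected at 27° C for 16-24 h, then treated 30 min with compound plus 20 uM forskolin. Iodide addition quenches YFP, read after ~21 s; ratio scaled to DMSO (0%) and positive control potentiator (100%).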

[2] = target: T2, CFTR in F508del/F508del primary CF hBE cells (Homo sapiens, UniProt P13569, DEL508-508); assay: Ussing chamber electrophysiology assay of CFTR potentiation in F508del/F508del CF bronchial epithelial cells (27° C.); assay type: cell-based
T2 construct: Primary cystic fibrosis human bronchial epithelial (CF hBE) cells were expanded and cultured; endogenous in cells; host or cells: primary CF human bronchial epithelial cells, genotype F508del/F508del
T2 sequence (P13569 with tags, fused parts or gaps DEL508-508): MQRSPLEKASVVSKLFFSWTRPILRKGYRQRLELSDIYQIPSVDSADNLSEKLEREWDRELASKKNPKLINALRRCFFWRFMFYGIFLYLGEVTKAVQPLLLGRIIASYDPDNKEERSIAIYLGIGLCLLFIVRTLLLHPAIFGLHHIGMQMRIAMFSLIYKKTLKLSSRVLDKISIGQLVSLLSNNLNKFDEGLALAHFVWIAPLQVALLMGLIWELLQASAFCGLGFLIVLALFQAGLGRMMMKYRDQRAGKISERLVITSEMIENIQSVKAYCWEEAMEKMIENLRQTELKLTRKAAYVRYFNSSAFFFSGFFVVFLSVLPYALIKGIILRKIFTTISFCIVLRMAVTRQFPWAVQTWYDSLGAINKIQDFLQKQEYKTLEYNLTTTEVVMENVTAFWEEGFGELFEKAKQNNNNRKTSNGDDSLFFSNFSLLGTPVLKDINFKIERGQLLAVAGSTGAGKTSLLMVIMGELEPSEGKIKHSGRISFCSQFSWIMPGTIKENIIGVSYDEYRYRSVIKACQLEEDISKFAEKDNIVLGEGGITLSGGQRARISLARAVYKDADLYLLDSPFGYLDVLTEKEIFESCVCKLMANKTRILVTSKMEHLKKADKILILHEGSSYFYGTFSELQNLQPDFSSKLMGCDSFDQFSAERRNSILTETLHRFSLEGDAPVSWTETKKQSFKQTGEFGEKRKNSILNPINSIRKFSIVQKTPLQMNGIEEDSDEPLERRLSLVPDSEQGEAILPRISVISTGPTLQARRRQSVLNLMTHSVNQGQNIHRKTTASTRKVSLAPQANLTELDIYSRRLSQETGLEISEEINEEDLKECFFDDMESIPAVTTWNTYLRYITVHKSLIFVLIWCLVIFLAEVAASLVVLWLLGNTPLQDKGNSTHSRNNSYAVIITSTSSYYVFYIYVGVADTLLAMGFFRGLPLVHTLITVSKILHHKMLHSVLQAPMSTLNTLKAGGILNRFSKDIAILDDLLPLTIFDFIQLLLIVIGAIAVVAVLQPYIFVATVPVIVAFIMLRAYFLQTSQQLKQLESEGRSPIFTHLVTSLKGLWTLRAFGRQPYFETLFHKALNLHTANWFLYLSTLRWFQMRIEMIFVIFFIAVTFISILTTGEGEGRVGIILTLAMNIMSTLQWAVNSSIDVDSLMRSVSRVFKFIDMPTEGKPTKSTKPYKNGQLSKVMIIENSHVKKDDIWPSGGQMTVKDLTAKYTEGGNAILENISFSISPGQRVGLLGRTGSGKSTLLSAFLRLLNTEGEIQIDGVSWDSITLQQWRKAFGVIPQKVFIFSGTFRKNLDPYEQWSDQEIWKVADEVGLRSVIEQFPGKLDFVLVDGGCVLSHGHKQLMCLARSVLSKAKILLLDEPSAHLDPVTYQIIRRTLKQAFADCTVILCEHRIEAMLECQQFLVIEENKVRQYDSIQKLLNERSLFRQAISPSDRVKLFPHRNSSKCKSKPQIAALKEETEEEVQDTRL
Outline: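 Well-differentiated primary CF hBE cells (>30 days air/liquid interface) in Ussing chambers, HEPES saline both sides, voltage clamped to zero. Amiloride 30 uM, forskolin 10 uM, four rising compound concentrations, then CFTRinh-172 20 uM added at 20-25 min intervals. Short-circuit current scaled to DMSO (0%) and a positive control potentiator maximum (100%).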

T1 sequence (P13569 with tags, fused parts or gaps DEL508-508): as above

EC50 [1]	EC50 [2]	Structure (SMILES)
27.6 nM	23.9 nM	COc1nc(C(F)(F)F)ncc1-c1cn(Cc2cn(-c3ccccc3F)nn2)c2ncnc(N)c12 [Example 252, 7-{[1-(2-Fluorophenyl)-1H-1,2,3-triazol-4-yl]methyl}-5-[4-methoxy-2-(trifluoromethyl)pyrimidin-5-yl]-7H-pyrrolo[2,3-d]pyrimidin-4-amine]
719 nM	1340 nM	COc1ncccc1-c1cn(Cc2nnc(-c3ccccc3F)[nH]2)c2ncnc(N)c12 [Example 253, 7-{[5-(2-Fluorophenyl)-4H-1,2,4-triazol-3-yl]methyl}-5-(2-methoxypyridin-3-yl)-7H-pyrrolo[2,3-d]pyrimidin-4-amine]
422 nM	140 nM	CC(C)n1cc(Cn2cc(-c3ccc(Cl)cc3)c3c(N)ncnc32)cn1 [Example 254, 5-(4-Chlorophenyl)-7-{[1-(propan-2-yl)-1H-pyrazol-4-yl]methyl}-7H-pyrrolo[2,3-d]pyrimidin-4-amine]
259 nM	64.7 nM	CC(c1cn(CC2CCC2)nn1)n1cc(-c2ccc(Cl)cc2)c2c(N)ncnc21 (stereo not drawn) [Example 255, 5-(4-Chlorophenyl)-7-{1-[1-(cyclobutylmethyl)-1H-1,2,3-triazol-4-yl]ethyl}-7H-pyrrolo[2,3-d]pyrimidin-4-amine]
341 nM	45 nM	CC(C)(c1cn(-c2ccccc2F)nn1)n1cc(-c2ccc(Cl)cc2)c2c(N)ncnc21 [Example 256, 5-(4-Chlorophenyl)-7-{2-[1-(2-fluorophenyl)-1H-1,2,3-triazol-4-yl]propan-2-yl}-7H-pyrrolo[2,3-d]pyrimidin-4-amine]
289 nM	38.3 nM	Cc1c(-c2ccc(Cl)cc2)c2c(N)ncnc2n1C(C)c1cn(-c2ccccc2F)nn1 (stereo not drawn) [Example 257, 5-(4-Chlorophenyl)-7-{1-[1-(2-fluorophenyl)-1H-1,2,3-triazol-4-yl]ethyl}-6-methyl-7H-pyrrolo[2,3-d]pyrimidin-4-amine]
343 nM	147 nM	CC(c1cc(-c2ccccc2F)no1)n1cc(-c2ccc(Cl)cc2)c2c(N)ncnc21 (stereo not drawn) [Example 258, 5-(4-Chlorophenyl)-7-{1-[3-(2-fluorophenyl)-1,2-oxazol-5-yl]ethyl}-7H-pyrrolo[2,3-d]pyrimidin-4-amine]
206 nM	52 nM	Cc1c(-c2ccc(Cl)cc2)c2c(N)ncnc2n1C(C)c1cc(-c2ccccc2F)no1 (stereo not drawn) [Example 259, 5-(4-Chlorophenyl)-7-{1-[3-(2-fluorophenyl)-1,2-oxazol-5-yl]ethyl}-6-methyl-7H-pyrrolo[2,3-d]pyrimidin-4-amine]
197 nM	110 nM	COc1ccccc1-c1cc(C(C)n2cc(-c3ccc(Cl)cc3)c3c(N)ncnc32)on1 (stereo not drawn) [Example 260, 5-(4-Chlorophenyl)-7-{1-[3-(2-methoxyphenyl)-1,2-oxazol-5-yl]ethyl}-7H-pyrrolo[2,3-d]pyrimidin-4-amine]
169 nM	232 nM	COc1cccc(-c2cc(C(C)n3cc(-c4ccc(Cl)cc4)c4c(N)ncnc43)on2)c1 (stereo not drawn) [Example 261, 5-(4-Chlorophenyl)-7-{1-[3-(3-methoxyphenyl)-1,2-oxazol-5-yl]ethyl}-7H-pyrrolo[2,3-d]pyrimidin-4-amine]
313 nM	60.2 nM	Nc1ncnc2c1c(-c1ccc(Cl)cc1)cn2Cc1cnn(-c2ccccc2F)c1 [Example 262, 5-(4-Chlorophenyl)-7-{[1-(2-fluorophenyl)-1H-pyrazol-4-yl]methyl}-7H-pyrrolo[2,3-d]pyrimidin-4-amine]
199 nM	21.6 nM	Nc1ncnc2c1c(-c1ccc(Cl)cc1)cn2Cc1cnc(-c2ccccc2F)[nH]1 [Example 263, 5-(4-Chlorophenyl)-7-{[2-(2-fluorophenyl)-1H-imidazol-5-yl]methyl}-7H-pyrrolo[2,3-d]pyrimidin-4-amine]
176 nM	35.4 nM	Nc1ncnc2c1c(-c1ccc(Cl)cc1)cn2Cc1cnc(-c2ccccc2)[nH]1 [Example 264, 5-(4-Chlorophenyl)-7-[(2-phenyl-1H-imidazol-5-yl)methyl]-7H-pyrrolo[2,3-d]pyrimidin-4-amine]
138 nM	253 nM	Cc1ccccc1-c1cc(C(C)n2cc(-c3ccc(Cl)cc3)c3c(N)ncnc32)on1 (stereo not drawn) [Example 266, 5-(4-Chlorophenyl)-7-{1-[3-(2-methylphenyl)-1,2-oxazol-5-yl]ethyl}-7H-pyrrolo[2,3-d]pyrimidin-4-amine]
1120 nM	136 nM	CC(c1cc(-c2cccc(F)c2)no1)n1cc(-c2ccc(Cl)cc2)c2c(N)ncnc21 (stereo not drawn) [Example 267, 5-(4-Chlorophenyl)-7-{1-[3-(3-fluorophenyl)-1,2-oxazol-5-yl]ethyl}-7H-pyrrolo[2,3-d]pyrimidin-4-amine]
470 nM	578 nM	COc1ncccc1-c1cn(Cc2ccn(-c3ccccc3F)n2)c2ncnc(N)c12 [Example 268, 7-{[1-(2-Fluorophenyl)-1H-pyrazol-3-yl]methyl}-5-(2-methoxypyridin-3-yl)-7H-pyrrolo[2,3-d]pyrimidin-4-amine]
478 nM	22.7 nM	Nc1ncnc2c1c(-c1ccc(Cl)cc1)cn2Cc1cc(C2CCCCC2)no1 [Example 269, 5-(4-Chlorophenyl)-7-[(3-cyclohexyl-1,2-oxazol-5-yl)methyl]-7H-pyrrolo[2,3-d]pyrimidin-4-amine]
451 nM	47.7 nM	COc1ncccc1-c1cn(Cc2cnn(-c3ccc(C(F)F)cc3)c2)c2ncnc(N)c12 [Example 270, 7-({1-[4-(Difluoromethyl)phenyl]-1H-pyrazol-4-yl}methyl)-5-(2-methoxypyridin-3-yl)-7H-pyrrolo[2,3-d]pyrimidin-4-amine]
398 nM	833 nM	COc1ncccc1-c1cn(Cc2nnc(-c3ccccc3)[nH]2)c2ncnc(N)c12 [Example 272, 5-(2-Methoxypyridin-3-yl)-7-[(5-phenyl-4H-1,2,4-triazol-3-yl)methyl]-7H-pyrrolo[2,3-d]pyrimidin-4-amine]
219 nM	152 nM	COc1ccc(-c2c(C)n(Cc3cn(-c4ccc(F)cc4F)nn3)c3ncnc(N)c23)cn1 [Example 278, 7-{[1-(2,4-Difluorophenyl)-1H-1,2,3-triazol-4-yl]methyl}-5-(6-methoxypyridin-3-yl)-6-methyl-7H-pyrrolo[2,3-d]pyrimidin-4-amine]
2670 nM	127 nM	Nc1ncnc2c1c(-c1ccc(Cl)cc1)cn2Cc1cc(C2CC2)no1 [Example 280, 5-(4-Chlorophenyl)-7-[(3-cyclopropyl-1,2-oxazol-5-yl)methyl]-7H-pyrrolo[2,3-d]pyrimidin-4-amine]
909 nM	216 nM	Nc1ncnc2c1c(-c1ccc(Cl)cc1)cn2Cc1nc(-c2ccccc2)c[nH]1 [Example 282, 5-(4-Chlorophenyl)-7-[(4-phenyl-1H-imidazol-2-yl)methyl]-7H-pyrrolo[2,3-d]pyrimidin-4-amine]
659 nM	111 nM	CC(C)c1cc(Cn2cc(-c3ccc(Cl)cc3)c3c(N)ncnc32)on1 [Example 283, 5-(4-Chlorophenyl)-7-{[3-(propan-2-yl)-1,2-oxazol-5-yl]methyl}-7H-pyrrolo[2,3-d]pyrimidin-4-amine]
3690 nM	3500 nM	Nc1ncnc2c1c(-c1ccc(Cl)cc1)cn2Cc1ncc(-c2ccccc2F)[nH]1 [Example 285, 5-(4-Chlorophenyl)-7-{[5-(2-fluorophenyl)-1H-imidazol-2-yl]methyl}-7H-pyrrolo[2,3-d]pyrimidin-4-amine]
81 nM	176 nM	COc1ncccc1-c1cn(Cc2cnn(-c3c(F)cccc3F)c2)c2ncnc(N)c12 [Example 286, 7-{[1-(2,6-Difluorophenyl)-1H-pyrazol-4-yl]methyl}-5-(2-methoxypyridin-3-yl)-7H-pyrrolo[2,3-d]pyrimidin-4-amine]
112 nM	254 nM	CC(c1cn(-c2ncccc2F)nn1)n1cc(-c2ccc(Cl)cc2)c2c(N)ncnc21 (stereo not drawn) [Example 287, 5-(4-Chlorophenyl)-7-{1-[1-(3-fluoropyridin-2-yl)-1H-1,2,3-triazol-4-yl]ethyl}-7H-pyrrolo[2,3-d]pyrimidin-4-amine]
90.6 nM	39.6 nM	CC(c1cn(-c2ncccc2F)nn1)n1ccc2c(Nc3ccc(OC4CC4)cc3)ncnc21 (stereo not drawn) [Example 288, [4-(Cyclopropyloxy)phenyl]-7-{1-[1-(3-fluoropyridin-2-yl)-1H-1,2,3-triazol-4-yl]ethyl}-7H-pyrrolo[2,3-d]pyrimidin-4-amine]
142 nM	342 nM	Nc1ncnc2c1c(C1CC1)cn2Cc1cn(-c2ccccc2F)nn1 [Example 289, 5-Cyclopropyl-7-{[1-(2-fluorophenyl)-1H-1,2,3-triazol-4-yl]methyl}-7H-pyrrolo[2,3-d]pyrimidin-4-amine]
669 nM	997 nM	COCC1CC1c1cn(Cc2cn(-c3ccccc3F)nn2)c2ncnc(N)c12 (stereo not drawn) [Example 290, 7-{[1-(2-Fluorophenyl)-1H-1,2,3-triazol-4-yl]methyl}-5-[2-(methoxymethyl)cyclopropyl]-7H-pyrrolo[2,3-d]pyrimidin-4-amine]
185 nM	389 nM	Nc1ncnc2c1c(C1CC1)cn2C1(c2cn(-c3ccccc3F)nn2)CC1 [Example 295, 5-Cyclopropyl-7-{1-[1-(2-fluorophenyl)-1H-1,2,3-triazol-4-yl]cyclopropyl}-7H-pyrrolo[2,3-d]pyrimidin-4-amine]
